# In US12383526B2, “Optimized sigma-1 agonist method of responder selection and treatment” (ANAVEX LIFE SCIENCES CORP., priority 2018, dated 2025):
# Tested on: subjects with mild-to-moderate AD
# Assay: ADCS-ADL (Activities of Daily Living) change from baseline, 57-week Phase 2a study and 208-week extension study
# Type: in vivo, human
# Parameters: key to unadjusted change in ADCS-ADL score, Mean ± Std. Dev: change from baseline on ADCS-ADL scale 0–78, higher = greater function
# Text: The present study integrates and analyzes data and samples from two consecutive clinical trials: 57-week study and 208-week study. 57-week study was a multicenter Phase 2a clinical trial of the drug ANAVEX2-73 that recruited a sample of 32 subjects with mild-to-moderate AD. It consisted of two parts: Part A was a simple randomized, open-label, two-period, cross-over, adaptive trial lasting up to 5 weeks. Each period involved one specific administration route and two possible dose levels: in one period the oral dose (30 mg or 50 mg) was administrated and in the other period an intravenous (IV) form (3 mg or 5 mg) was administered, making a total of 8 possible dose administration schemes in Part A (details available in FIG. 2A). The two periods were separated by a wash-out period of 12 days where no dose was given.
# Part B, following immediately after Part A, was an open-label extension of the oral daily dose for an additional 52 weeks. The primary endpoint of 57-week study was to establish the safety and tolerability of the drug. Secondary endpoints aimed at establishing the relationship between dosing regimen and pharmacodynamics-exploratory efficacy outcomes of cognition and function. Cognition was assessed by the Mini Mental State Examination (MMSE), while functional abilities by the Alzheimer's Disease Co-operative Study—Activities of Daily Living Inventory (ADCS-ADL). Additional cognitive measures included the Cogstate Brief Battery (CBB), and functional measures of Electroencephalography and Event-Related Potential (EEG and ERP). Part B continued an adaptive oral administration scheme. Table 12 summarizes mean oral dose administration during the 57-week study study.
# Due to favorable safety and tolerability profile of the 57-week study (Table 2), and in response to requests from patients and caregivers, a 208-week open-label extension study (208-week study) was carried out immediately after completion of 57-week study Part B. 208-week study enrolled the 24 subjects who completed Part B and applied similarly an adaptive daily oral administration scheme. ANAVEX2-73-003 involves continuous evaluation of safety and efficacy as measured by the MMSE and ADCS-ADL. At week 148 (interim time point for analyses), data on the subjects remaining in the study (n=21) was analyzed for efficacy outcomes. This report was drafted using data available at week 148, while ANAVEX2-73-003 is still ongoing.
# Exploratory clinical efficacy in this study was defined as change from baseline of each patient's cognitive (MMSE) and functional ability (ADCS-ADL) scores. The MMSE57 is a widely used, validated instrument in clinical AD research, including as a cognitive outcome measure in drug trials. The range of the scale is from 0 to 30, with a higher score indicating higher cognitive function. The ADCS-ADL58 is undertaken in a structured caregiver interview format and assesses performance in activities of daily living of patients with AD. The scale is from 0 to 78, with a higher score indicating greater function. The ADCS-ADL has shown to have good test-retest reliability 59. The MMSE and the ADCS-ADL were assessed during pre-specified clinical site visits across 14 different time points during the 57-week study (Weeks 0 and 5 in Part A; Weeks 17, 31, 41, 53, and 57 in Part B), and 208-week study (Weeks 70, 83, 96, 109, 122, 135, and 148) studies.
# Corresponding Delta scores were calculated using the difference between values at each visit and at baseline for each individual patient, with a focus on Week 57. In addition, to lower the impact of noise in MMSE and ADCS-ADL scores, a Slope was estimated using a linear regression across all available time points for each individual patient. The derived scores describe the progression of exploratory efficacy data from baseline at several specific time points (Deltas) and over a set period of time (Slope). […]
structure (smiles),measurement,setting,value
"CN(C)CC1CCOC1(c1ccccc1)c1ccccc1.Cl (centres unmarked) [ANAVEX2-73, tetrahydro-N,N-dimethyl-2,2-diphenyl-3-furanmethanamine hydrochloride]",ADCS-ADL Mean Δ at 57 weeks,"Absence of COMT_L146fs variant & Baseline MMSE ≥20, N 11",−0.63 ± 5.33
same,ADCS-ADL Mean Δ at 57 weeks,"Absence of COMT_L146fs variant, N 16",−2.37 ± 6.96
same,ADCS-ADL Mean Δ at 57 weeks,"Absence of SIGMAR1_Q2P variant & Absence of COMT_L145fs variant & Baseline MMSE ≥20, N 10",−0.30 ± 5.50
same,ADCS-ADL Mean Δ at 57 weeks,"Absence of SIGMAR1_Q2P variant, N 16",−3.31 ± 7.64
same,ADCS-ADL Mean Δ at 57 weeks,"Absence of SIGNAR1_Q2P variant & Baseline MMSE ≥20, N 11",−1.27 ± 6.13
same,"unadjusted change in ADCS-ADL score, Mean ± Std. Dev","All Patients (N = 21), Week 0",0 ± 0
same,"unadjusted change in ADCS-ADL score, Mean ± Std. Dev","All Patients (N = 21), Week 5",−1.65 ± 6.71
same,"unadjusted change in ADCS-ADL score, Mean ± Std. Dev","All Patients (N = 21), Week 17",−1.33 ± 3.85
same,"unadjusted change in ADCS-ADL score, Mean ± Std. Dev","All Patients (N = 21), Week 31",−3.60 ± 8.09
same,"unadjusted change in ADCS-ADL score, Mean ± Std. Dev","All Patients (N = 21), Week 41",−3.95 ± 6.34
same,"unadjusted change in ADCS-ADL score, Mean ± Std. Dev","All Patients (N = 21), Week 53",−5.29 ± 7.47
same,"unadjusted change in ADCS-ADL score, Mean ± Std. Dev","All Patients (N = 21), Week 57",−5.24 ± 8.42
same,"unadjusted change in ADCS-ADL score, Mean ± Std. Dev","All Patients (N = 21), Week 70",−8.81 ± 10.90
same,"unadjusted change in ADCS-ADL score, Mean ± Std. Dev","All Patients (N = 21), Week 83",−9.38 ± 12.69
same,"unadjusted change in ADCS-ADL score, Mean ± Std. Dev","All Patients (N = 21), Week 96",−14.52 ± 15.61
same,"unadjusted change in ADCS-ADL score, Mean ± Std. Dev","All Patients (N = 21), Week 109",−14.25 ± 14.56
same,"unadjusted change in ADCS-ADL score, Mean ± Std. Dev","All Patients (N = 21), Week 122",−17.84 ± 18.89
same,"unadjusted change in ADCS-ADL score, Mean ± Std. Dev","All Patients (N = 21), Week 135",−20.29 ± 18.37
same,"unadjusted change in ADCS-ADL score, Mean ± Std. Dev","All Patients (N = 21), Week 148",−21.16 ± 17.73
same,ADCS-ADL Mean Δ at 57 weeks,"All, N 21",−5.19 ± 8.46
same,ADCS-ADL Mean Δ at 57 weeks,"Baseline MMSE ≥20, N 13",−2.00 ± 5.93
same,"unadjusted change in ADCS-ADL score, Mean ± Std. Dev","Group1 (n 2), Week 0",0.00 ± 0.00
same,"unadjusted change in ADCS-ADL score, Mean ± Std. Dev","Group1 (n 2), Week 5",6.50 ± 9.19
same,"unadjusted change in ADCS-ADL score, Mean ± Std. Dev","Group1 (n 2), Week 17",4.50 ± 0.71
same,"unadjusted change in ADCS-ADL score, Mean ± Std. Dev","Group1 (n 2), Week 31",6.50 ± 3.54
same,"unadjusted change in ADCS-ADL score, Mean ± Std. Dev","Group1 (n 2), Week 41",4.50 ± 0.71
same,"unadjusted change in ADCS-ADL score, Mean ± Std. Dev","Group1 (n 2), Week 53",5.00 ± 1.41
same,"unadjusted change in ADCS-ADL score, Mean ± Std. Dev","Group1 (n 2), Week 57",6.00 ± 2.83
same,"unadjusted change in ADCS-ADL score, Mean ± Std. Dev","Group1 (n 2), Week 70",6.00 ± 2.83
same,"unadjusted change in ADCS-ADL score, Mean ± Std. Dev","Group1 (n 2), Week 83",4.50 ± 2.12
same,"unadjusted change in ADCS-ADL score, Mean ± Std. Dev","Group1 (n 2), Week 96",5.50 ± 2.12
same,"unadjusted change in ADCS-ADL score, Mean ± Std. Dev","Group1 (n 2), Week 109",4.00 ± 0.00
same,"unadjusted change in ADCS-ADL score, Mean ± Std. Dev","Group1 (n 2), Week 122",6.00 ± 2.83
same,"unadjusted change in ADCS-ADL score, Mean ± Std. Dev","Group1 (n 2), Week 135",6.00 ± 2.83
same,"unadjusted change in ADCS-ADL score, Mean ± Std. Dev","Group1 (n 2), Week 148",7.00 ± 4.24
same,"unadjusted change in ADCS-ADL score, Mean ± Std. Dev","Group2 (n 6), Week 0",0.00 ± 0.00
same,"unadjusted change in ADCS-ADL score, Mean ± Std. Dev","Group2 (n 6), Week 5",0.83 ± 6.59
same,"unadjusted change in ADCS-ADL score, Mean ± Std. Dev","Group2 (n 6), Week 17",1.33 ± 2.80
same,"unadjusted change in ADCS-ADL score, Mean ± Std. Dev","Group2 (n 6), Week 31",0.33 ± 5.39
same,"unadjusted change in ADCS-ADL score, Mean ± Std. Dev","Group2 (n 6), Week 41",0.50 ± 4.09
same,"unadjusted change in ADCS-ADL score, Mean ± Std. Dev","Group2 (n 6), Week 53",0.50 ± 4.18
same,"unadjusted change in ADCS-ADL score, Mean ± Std. Dev","Group2 (n 6), Week 57",1.83 ± 3.66
same,"unadjusted change in ADCS-ADL score, Mean ± Std. Dev","Group2 (n 6), Week 70",0.33 ± 4.93
same,"unadjusted change in ADCS-ADL score, Mean ± Std. Dev","Group2 (n 6), Week 83",−0.67 ± 5.85
same,"unadjusted change in ADCS-ADL score, Mean ± Std. Dev","Group2 (n 6), Week 96",−2.50 ± 7.71
same,"unadjusted change in ADCS-ADL score, Mean ± Std. Dev","Group2 (n 6), Week 109",−3.83 ± 7.96
same,"unadjusted change in ADCS-ADL score, Mean ± Std. Dev","Group2 (n 6), Week 122",−3.00 ± 6.72
same,"unadjusted change in ADCS-ADL score, Mean ± Std. Dev","Group2 (n 6), Week 135",−4.17 ± 10.42
same,"unadjusted change in ADCS-ADL score, Mean ± Std. Dev","Group2 (n 6), Week 148",−8.17 ± 15.96
same,"unadjusted change in ADCS-ADL score, Mean ± Std. Dev","Group 3 (n 11), Week 0",0.00 ± 0.00
same,"unadjusted change in ADCS-ADL score, Mean ± Std. Dev","Group 3 (n 11), Week 5",−0.09 ± 6.32
same,"unadjusted change in ADCS-ADL score, Mean ± Std. Dev","Group 3 (n 11), Week 17",0.09 ± 3.45
same,"unadjusted change in ADCS-ADL score, Mean ± Std. Dev","Group 3 (n 11), Week 31",−1.82 ± 5.71
same,"unadjusted change in ADCS-ADL score, Mean ± Std. Dev","Group 3 (n 11), Week 41",−2.27 ± 6.40
same,"unadjusted change in ADCS-ADL score, Mean ± Std. Dev","Group 3 (n 11), Week 53",−1.73 ± 5.61
same,"unadjusted change in ADCS-ADL score, Mean ± Std. Dev","Group 3 (n 11), Week 57",−1.36 ± 6.09
